Measured values as given in patent US20220242846A1, “ISOINDOLINONE COMPOUNDS” (Monte Rosa Therapeutics AG, priority 2019, published 2022).
Where two headings read alike, the source gives them in different places.

How the values were obtained:
[1] = biological target: T1, Full length wild-type cereblon CRBN (Homo sapiens, UniProt Q96SW2); assay: Fluorescence polarization (FP) assay indicating cereblon binding; settings: CRBN 80.0 nM, fluorescent probe 5 nM, FP measured after 12 hours; read-out: rFP IC50
T1 construct: Full length wild-type cereblon CRBN (80.0 nM, 10 μL) was incubated in assay buffer
Method in brief: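 Full-length wild-type human CRBN (80.0 nM) preincubated 30 min at room temperature with compound (12-point curve, 300-0.937 or 3000-9.3 nM) in HEPES pH 8.0, NaCl, TCEP, Tween 20. Thalidomide-based Cy5-type probe then added at 5 nM final; FP read after 12 h (ex 590, em 675 nm), normalized to DMSO, IC50 derived.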

[2] = system: Human mammary epithelial cells (HMEC) engineered to express c-myc tagged with EGFP; assay: 3D spheroid assay, myc-HMEC (CellTiterGlo3D viability); type: cell-based
Protocol: (§1) 3D Spheroid Experiments—HMEC
(§2) Human mammary epithelial cells (HMEC) were engineered to express either c-myc tagged with EGFP or EGFP alone (non myc) (analogous but distinct from Kessler J D et al, Science. 2012 Jan. 20; 335(6066):348-53. doi: 10.1126/science.1212728; Hsu T Y et al, Nature. 2015 Sep. 17; 525(7569):384-8. doi: 10.1038/nature14985). The engineered cells were seeded at 1000 (myc) or 4000 (non myc) cells/well in a 384 ultra-low attachment plate in a total volume of 40 µL, HMEC cell culture media (DMEM/F12+10% HI-FBS+15 mM HEPES+0.5 ug/ml Hydrocortisone+10 ug/ml Insulin+20 ng/ml EGF). Plates were spun at 1200 rpm for 5 minutes at room temperature to ensure that cells have gathered in the middle of the well and incubated at 37° C. for 48 hrs before firing with compounds. On Day 2 (48 h post seeding) cells were imaged (brightfield and EGFP fluorescence) using the Celigo imaging cytometer prior to firing compounds. For primary screens, compounds were added at three concentrations (1.25, 10 and 30 uM) in a volume of 120 nL using the ECHO acoustic dispenser and spun at 2000 rpm for 2 minutes at room temperature before incubating at 37° C. for 5 days. […] On Day 7, prior to measuring cell viability using CellTiterGlo3D, cells were imaged (brightfield and EGFP fluorescence) on the Celigo imaging cytometer. The CellTiterGlo3D reagent is added at 30uL/well and incubated at room temperature for 30mins After 30mins of incubation, luminescence readings were recorded using the Perkin Elmer EnVision reader.

[3] = system: Human mammary epithelial cells (HMEC) engineered to express EGFP alone (non myc); assay: 3D spheroid assay, non myc-HMEC (CellTiterGlo3D viability); type: cell-based; settings: 120 h, 3D spheroids, 5 days with compound, read-out: Code: EC50 value in the non myc-HMEC assay
Protocol: as §1, §2

GSPT1 = GSPT1 (Homo sapiens, UniProt P15170+Q96SW2); assay: Immunofluorescence assay for GSPT1 degradation in CAL-51 cells; type: cell-based; set-up: CAL-51 cells were purchased from DSMZ (cat. Number ACC302); endogenous in cells; host or cells: CAL-51 (DSMZ ACC302); settings: compound treatment 6 hours
Method in brief: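 CAL-51 cells on fibronectin-coated plates treated 6 h with compound (30 μM to 0.1 nM); fixed, stained with anti-GSPT1/Alexa-488, phalloidin and DAPI, imaged by high-content microscopy. Mean GSPT1 intensity per cell normalized to controls; DC50 by non-linear regression.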

[4] = Homo sapiens, HMEC, 120 h, 3D spheroids, 5 days with compound, read-out: Code: EC50 value in the myc-HMEC assay
[5] = read-out: Code: activity for GSPT1 degradation (DC50)
[6] = myc-HMEC 3D spheroids (compounds with code D and E), 5 days, read-out: EC50

T1 sequence (Q96SW2 whole entry): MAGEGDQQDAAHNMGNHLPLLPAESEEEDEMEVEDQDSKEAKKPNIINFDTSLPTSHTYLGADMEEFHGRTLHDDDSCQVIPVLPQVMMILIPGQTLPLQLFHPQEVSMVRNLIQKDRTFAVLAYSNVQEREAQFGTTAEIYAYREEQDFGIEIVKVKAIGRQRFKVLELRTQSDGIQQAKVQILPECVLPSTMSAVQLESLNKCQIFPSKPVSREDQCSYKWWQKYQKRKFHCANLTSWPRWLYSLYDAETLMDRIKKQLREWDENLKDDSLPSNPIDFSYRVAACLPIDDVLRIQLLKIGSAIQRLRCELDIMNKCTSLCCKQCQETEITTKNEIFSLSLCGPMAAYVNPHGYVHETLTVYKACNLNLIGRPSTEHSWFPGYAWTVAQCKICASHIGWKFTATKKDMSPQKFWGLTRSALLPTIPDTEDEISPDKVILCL
Sequence of GSPT1 (P15170 whole entry): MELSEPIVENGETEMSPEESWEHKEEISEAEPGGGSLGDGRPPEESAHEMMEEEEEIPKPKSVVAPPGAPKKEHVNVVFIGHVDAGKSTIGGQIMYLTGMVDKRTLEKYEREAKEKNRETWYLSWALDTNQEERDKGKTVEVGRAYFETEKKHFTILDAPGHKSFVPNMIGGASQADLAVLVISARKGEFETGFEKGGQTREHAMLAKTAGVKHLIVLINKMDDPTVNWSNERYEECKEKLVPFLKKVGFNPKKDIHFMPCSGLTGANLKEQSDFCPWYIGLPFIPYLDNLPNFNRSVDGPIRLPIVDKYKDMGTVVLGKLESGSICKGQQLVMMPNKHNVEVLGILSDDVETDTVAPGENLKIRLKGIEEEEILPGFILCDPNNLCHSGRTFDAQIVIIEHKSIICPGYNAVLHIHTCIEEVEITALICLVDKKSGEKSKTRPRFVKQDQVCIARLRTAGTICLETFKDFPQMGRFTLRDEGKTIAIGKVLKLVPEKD
Sequence of GSPT1 (Q96SW2 whole entry): as the sequence (Q96SW2 whole entry) above
Sequence of GSPT1 (Q16531 2-1140 partner limits assumed): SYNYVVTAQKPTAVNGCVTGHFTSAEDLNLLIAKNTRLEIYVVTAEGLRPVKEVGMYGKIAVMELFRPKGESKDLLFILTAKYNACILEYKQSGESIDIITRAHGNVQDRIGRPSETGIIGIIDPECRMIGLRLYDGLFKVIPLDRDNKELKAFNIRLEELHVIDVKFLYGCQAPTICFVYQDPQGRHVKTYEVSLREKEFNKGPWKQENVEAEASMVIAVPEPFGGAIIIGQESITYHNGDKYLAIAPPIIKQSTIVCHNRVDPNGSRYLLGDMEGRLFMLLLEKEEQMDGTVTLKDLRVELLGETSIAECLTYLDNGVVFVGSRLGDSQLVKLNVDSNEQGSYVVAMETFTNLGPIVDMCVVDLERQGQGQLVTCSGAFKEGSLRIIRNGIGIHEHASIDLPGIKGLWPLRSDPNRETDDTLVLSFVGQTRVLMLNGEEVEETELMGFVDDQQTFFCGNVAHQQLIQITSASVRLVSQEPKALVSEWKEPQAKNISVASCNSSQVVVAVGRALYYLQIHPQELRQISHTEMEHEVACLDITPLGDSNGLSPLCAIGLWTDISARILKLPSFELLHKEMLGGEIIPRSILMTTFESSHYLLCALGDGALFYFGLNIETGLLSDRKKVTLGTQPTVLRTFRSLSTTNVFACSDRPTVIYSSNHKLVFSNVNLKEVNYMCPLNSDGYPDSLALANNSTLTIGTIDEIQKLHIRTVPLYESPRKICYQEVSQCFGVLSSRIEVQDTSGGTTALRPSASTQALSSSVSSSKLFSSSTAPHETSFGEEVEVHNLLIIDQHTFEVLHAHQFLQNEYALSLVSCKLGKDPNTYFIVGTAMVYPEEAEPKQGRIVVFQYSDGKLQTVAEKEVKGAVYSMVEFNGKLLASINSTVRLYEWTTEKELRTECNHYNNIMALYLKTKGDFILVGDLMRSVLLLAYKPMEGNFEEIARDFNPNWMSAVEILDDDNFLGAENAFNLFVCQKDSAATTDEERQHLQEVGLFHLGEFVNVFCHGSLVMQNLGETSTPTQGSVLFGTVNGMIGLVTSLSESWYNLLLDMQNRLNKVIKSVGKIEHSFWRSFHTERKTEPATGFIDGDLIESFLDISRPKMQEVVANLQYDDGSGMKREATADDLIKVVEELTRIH

Row | SMILES | IC50 [1] [nM] | EC50 [2, 4] [nM] | EC50 [3] [nM] | DC50 (GSPT1; [5]) [nM] | EC50 ([2]; Homo sapiens, HMEC, 120 h, myc-HMEC 3D spheroids (compounds with code D and E), 5 days, read-out: EC50) [nM] | EC50 [2, 6] [nM] | DC50 (GSPT1; GSPT1 degradation, read-out: DC50) [nM]
1 | CC(C)(C)c1ccccc1NC(=O)NCc1ccc2c(c1)C(=O)N(C1CCC(=O)NC1=O)C2 (stereo not shown) [Compound 11] | 1230 | > 2000 | > 10000 | > 300 | – | – | –
2 | O=C1CCC(N2Cc3ccc(CNC(=O)Nc4ccc(C(F)(F)F)cc4)cc3C2=O)C(=O)N1 (stereo not shown) [Compound 41] | 590 | 400 to 2000 | > 10000 | 100 to 300 | ≤ 2000 | 1100 | 172
3 | O=C1CCC(N2Cc3ccc(CNC(=O)Nc4ccc(-c5ccccc5)cc4)cc3C2=O)C(=O)N1 (stereo not shown) [Compound 71] | 333 | ≤ 400 | > 10000 | ≤ 100 | – | 39 | –
4 | CC(C)c1ccc(NC(=O)NCc2ccc3c(c2)C(=O)N(C2CCC(=O)NC2=O)C3)cc1 (stereo not shown) [Compound 57] | 373 | > 2000 | > 10000 | > 300 | – | – | –
5 | O=C1CCC(N2Cc3ccc(CNC(=O)NC4CCCc5ccccc54)cc3C2=O)C(=O)N1 (stereo not shown) [Compound 40] | 566 | > 2000 | > 10000 | > 300 | – | – | –
6 | O=C1CCC(N2Cc3ccc(CNC(=O)Nc4cccc(C(F)(F)F)c4)cc3C2=O)C(=O)N1 (stereo not shown) [Compound 47] | 1080 | 400 to 2000 | > 10000 | ≤ 100 | – | 544 | –
7 | O=C1CCC(N2Cc3ccc(CNC(=O)Nc4ccccc4)cc3C2=O)C(=O)N1 (stereo not shown) [Compound 1] | 1040 | > 2000 | > 10000 | > 300 | – | – | –
8 | O=C1CCC(N2Cc3ccc(CNC(=O)NCCc4ccccc4)cc3C2=O)C(=O)N1 (stereo not shown) [Compound 27] | 444 | > 2000 | > 10000 | > 300 | – | – | –
9 | COc1cccc(CNC(=O)NCc2ccc3c(c2)C(=O)N(C2CCC(=O)NC2=O)C3)c1 (stereo not shown) [Compound 53] | 364 | > 2000 | > 10000 | > 300 | – | – | –
10 | COc1ccccc1NC(=O)NCc1ccc2c(c1)C(=O)N(C1CCC(=O)NC1=O)C2 (stereo not shown) [Compound 7] | 324 | > 2000 | > 10000 | > 300 | – | – | –
11 | COc1ccc(NC(=O)NCc2ccc3c(c2)C(=O)N(C2CCC(=O)NC2=O)C3)c(C)c1 (stereo not shown) [Compound 23] | 464 | > 2000 | > 10000 | > 300 | – | – | –
12 | Cc1cc(Cl)ccc1NC(=O)NCc1ccc2c(c1)C(=O)N(C1CCC(=O)NC1=O)C2 (stereo not shown) [Compound 32] | 508 | > 2000 | > 10000 | > 300 | – | – | –
13 | O=C1CCC(N2Cc3ccc(CNC(=O)NC4CCCCC4)cc3C2=O)C(=O)N1 (stereo not shown) [Compound 29] | 1140 | > 2000 | > 10000 | > 300 | – | – | –
14 | O=C1CCC(N2Cc3ccc(CNC(=O)Nc4cccc(Cl)c4F)cc3C2=O)C(=O)N1 (stereo not shown) [Compound 33] | 591 | ≤ 400 | > 10000 | ≤ 100 | – | 250 | –
15 | O=C1CCC(N2Cc3ccc(CNC(=O)Nc4cc(Cl)cc(Cl)c4)cc3C2=O)C(=O)N1 (stereo not shown) [Compound 38] | 589 | ≤ 400 | > 10000 | 100 to 300 | – | 161 | –
16 | O=C1CCC(N2Cc3ccc(CNC(=O)NCC4CC4)cc3C2=O)C(=O)N1 (stereo not shown) [Compound 26] | 907 | > 2000 | > 10000 | > 300 | – | – | –
17 | O=C1CCC(N2Cc3ccc(CNC(=O)Nc4cccc(F)c4)cc3C2=O)C(=O)N1 (stereo not shown) [Compound 34] | 481 | > 2000 | > 10000 | > 300 | – | – | –
18 | COCCNC(=O)NCc1ccc2c(c1)C(=O)N(C1CCC(=O)NC1=O)C2 (stereo not shown) [Compound 72] | 322 | > 2000 | > 10000 | > 300 | – | – | –
19 | CCc1ccccc1NC(=O)NCc1ccc2c(c1)C(=O)N(C1CCC(=O)NC1=O)C2 (stereo not shown) [Compound 36] | 546 | > 2000 | > 10000 | > 300 | – | – | –
20 | Cc1ccc(F)cc1NC(=O)NCc1ccc2c(c1)C(=O)N(C1CCC(=O)NC1=O)C2 (stereo not shown) [Compound 62] | 441 | > 2000 | > 10000 | > 300 | – | – | –
21 | O=C1CCC(N2Cc3ccc(CNC(=O)NCCCc4ccccc4)cc3C2=O)C(=O)N1 (stereo not shown) [Compound 70] | 253 | > 2000 | > 10000 | > 300 | – | – | –
22 | COc1ccc(CNC(=O)NCc2ccc3c(c2)C(=O)N(C2CCC(=O)NC2=O)C3)cc1 (stereo not shown) [Compound 52] | 477 | > 2000 | > 10000 | > 300 | – | – | –
23 | Cc1cc(NC(=O)NCc2ccc3c(c2)C(=O)N(C2CCC(=O)NC2=O)C3)ccc1Cl (stereo not shown) [Compound 61] | 381 | ≤ 400 | > 10000 | ≤ 100 | – | 92 | –
24 | O=C1CCC(N2Cc3ccc(CNC(=O)Nc4cc(F)ccc4F)cc3C2=O)C(=O)N1 (stereo not shown) [Compound 69] | 381 | > 2000 | > 10000 | > 300 | – | – | –
25 | Cc1ccc(F)c(NC(=O)NCc2ccc3c(c2)C(=O)N(C2CCC(=O)NC2=O)C3)c1 (stereo not shown) [Compound 67] | 284 | > 2000 | > 10000 | > 300 | – | – | –
26 | O=C1CCC(N2Cc3ccc(CNC(=O)Nc4ccc(Cl)cc4)cc3C2=O)C(=O)N1 (stereo not shown) [Compound 2] | 254 | > 2000 | > 10000 | > 300 | – | – | –
27 | O=C1CCC(N2Cc3ccc(CNC(=O)Nc4ccc(Cl)cc4Cl)cc3C2=O)C(=O)N1 (stereo not shown) [Compound 45] | 472 | > 2000 | > 10000 | > 300 | – | – | –
28 | CC(C)(C)c1ccc(NC(=O)NCc2ccc3c(c2)C(=O)N(C2CCC(=O)NC2=O)C3)cc1 (stereo not shown) [Compound 56] | 434 | ≤ 400 | > 10000 | ≤ 100 | – | 228 | –
